Reference: patent US6949565B2, “Protein kinase inhibitors” (Develogen Israel Ltd., priority 2000, dated 2005)

Test system: PKC
Experiment: PKC activity inhibition
Assay type: biochemical

IC50: 31 µM
SMILES: O=S(=O)(NCCNCC=Cc1ccc(Br)cc1)c1cccc2cnccc12 [H-89, N-[2-(p-bromocinnamylamino)ethyl]-5-isoquinolinesulfonamide]
